Source: ChEMBL document CHEMBL1139321, “Discovery of novel spirocyclopropyl hydroxamate and carboxylate compounds as TACE inhibitors” (Bioorg Med Chem Lett, 2009)

What was measured:
[1] = biological target: Disintegrin and metalloproteinase domain-containing protein 17 (Homo sapiens, UniProt P78536)
Description: Inhibition of TACE catalytic domain by FRET assay

Blood = assay: Inhibition of LPS-induced TNFalpha production in human whole blood after 1 hr by ELISA; type: functional, tissue-based

Sequence of Disintegrin and metalloproteinase domain-containing protein 17 (P78536 whole entry, the tested form may be a part): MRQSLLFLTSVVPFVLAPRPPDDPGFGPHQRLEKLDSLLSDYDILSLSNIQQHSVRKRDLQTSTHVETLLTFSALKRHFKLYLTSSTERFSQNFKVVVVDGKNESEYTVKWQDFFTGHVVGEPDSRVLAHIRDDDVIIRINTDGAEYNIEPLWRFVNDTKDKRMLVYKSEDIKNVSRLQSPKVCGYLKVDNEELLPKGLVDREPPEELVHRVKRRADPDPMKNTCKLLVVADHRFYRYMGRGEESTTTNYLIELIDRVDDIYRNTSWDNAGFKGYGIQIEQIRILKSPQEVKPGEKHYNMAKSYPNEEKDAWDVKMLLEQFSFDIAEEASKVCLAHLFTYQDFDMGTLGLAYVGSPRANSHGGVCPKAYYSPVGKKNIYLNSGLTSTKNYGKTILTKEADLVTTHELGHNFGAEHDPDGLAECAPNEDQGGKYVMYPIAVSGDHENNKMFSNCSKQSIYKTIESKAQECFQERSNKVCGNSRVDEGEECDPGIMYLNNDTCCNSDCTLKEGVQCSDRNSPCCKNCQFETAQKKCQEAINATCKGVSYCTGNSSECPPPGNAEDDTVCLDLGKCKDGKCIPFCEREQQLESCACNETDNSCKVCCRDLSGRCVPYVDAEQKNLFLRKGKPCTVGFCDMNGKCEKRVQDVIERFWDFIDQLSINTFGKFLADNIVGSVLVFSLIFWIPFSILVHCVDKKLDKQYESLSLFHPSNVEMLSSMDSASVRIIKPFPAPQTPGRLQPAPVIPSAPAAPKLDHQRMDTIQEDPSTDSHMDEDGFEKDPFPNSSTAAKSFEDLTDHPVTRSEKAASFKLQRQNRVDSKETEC

Ki [1] [nM]	IC50 (Blood) [nM]	Structure (SMILES)
3220		O=C(O)[C@H]1C[C@@]12CC(c1ccc(OCc3cc(-c4cccnc4)nc4ccccc34)cc1)NC2=O (mixture of isomers)
94		CN1C(=O)[C@@]2(CC1c1ccc(OCc3cc(-c4ccccc4)nc4ccccc34)c(F)c1)C[C@@H]2C(=O)O (mixture of isomers)
137		CN1C(=O)[C@@]2(CC1c1ccc(OCc3cc(-c4ccccc4)nc4ccccc34)c(F)c1)C[C@@H]2C(=O)NO (mixture of isomers)
3070		Cc1cc(COc2ccc(C3C[C@@]4(C[C@@H]4C(=O)O)C(=O)N3)cc2)c2ccccc2n1 (mixture of isomers)
32		O=C(NO)[C@H]1C[C@@]12CC(c1ccc(OCc3cc(-c4cccnc4)nc4ccccc34)cc1)NC2=O (mixture of isomers)
143	> 100	O=C(O)[C@H]1C[C@@]12CC(c1ccc(OCc3cc(-c4ccccc4)nc4ccccc34)cc1)NC2=O (mixture of isomers)
2140	> 100	O=C(O)[C@H]1C[C@@]12CC(c1ccc(OCc3cc(C(F)(F)F)nc4ccccc34)cc1)NC2=O (mixture of isomers)
673		O=C(O)[C@H]1C[C@@]12CC(c1ccc(OCc3cc(-c4ccncc4)nc4ccccc34)cc1)NC2=O (mixture of isomers)
53	> 100	O=C(NO)[C@H]1C[C@@]12CC(c1ccc(OCc3cc(C(F)(F)F)nc4ccccc34)cc1)NC2=O (mixture of isomers)
30	> 100	O=C(NO)[C@H]1C[C@@]12CC(c1ccc(OCc3cc(-c4ccccc4)nc4ccccc34)cc1)NC2=O (mixture of isomers)
40	> 100	O=C(O)[C@H]1C[C@@]12CC(c1ccc(OCc3cc(-c4ccccc4)nc4ccccc34)c(F)c1)NC2=O (mixture of isomers)
> 50000		COC(=O)[C@H]1C[C@@]12CC(c1ccc(OCc3cc(-c4ccccc4)nc4ccccc34)c(F)c1)N(C)C2=O (mixture of isomers)

Structure (SMILES)	Ki [1] [nM]	IC50 (Blood) [nM]
O=C(NO)[C@H]1C[C@@]12CC(c1ccc(OCc3cc(-c4ccncc4)nc4ccccc34)cc1)NC2=O (stereo partly specified)	33	
O=C(NO)[C@H]1C[C@@]12CC(c1ccc(OCc3cc(-c4ccccc4)nc4ccccc34)c(F)c1)NC2=O (mixture of isomers)	6.7	> 100
Cc1cc(COc2ccc(C3C[C@@]4(C[C@@H]4C(=O)NO)C(=O)N3)cc2)c2ccccc2n1 (stereo partly specified)	32	
